Data reported in patent US12410155B2, “Salt form and crystal form of tetrahydrocyclohepta indazole compound” (Zhejiang Yangli Pharmaceutical Technology Co., Ltd., priority 2021, dated 2025).

Legend:
[1] = tested on: T-47D cells; assay: T-47D cell proliferation inhibition assay (CTG); assay type: cell-based; settings: Homo sapiens, T47D, 1 nM estradiol
Procedure: (4) MCF-7, T-47D, and CAMA-1 Cell Proliferation Inhibition Assay
T-47D: RPMI-1640 (without phenol red) containing 10% charcoal-stripped serum (500 mL culture medium containing 450 mL RPMI-1640, 50 mL charcoal-stripped serum).
The inhibitory effect of the test compound of formula (I) on the proliferation of MCF-7, CAMA-1, and T-47D cells was analyzed. For MCF-7 cells, ten concentration gradients ranging from 100 nM to 0.0003815 nM were tested, with three replicates for each concentration. For CAMA-1 cells, nine concentration gradients ranging from 100 nM to 0.001526 nM were tested, also with three replicates for each concentration. For T-47D cells, nine concentration gradients ranging from 2 μM to 0.00512 nM were tested, with three replicates for each concentration. Each experiment was conducted twice independently.
The T-47D cells were treated with starvation medium for three days, followed by trypsin digestion, centrifugation, resuspension, and counting. Cell suspensions were prepared using the corresponding culture medium, and 40 μL of the suspension was added to each well of a 384-well plate. The plate was then incubated at 37° C. in a cell incubator with 5% CO2. The test compound of formula (I) was dissolved in DMSO to an initial concentration of 400 μM and subjected to a 5-fold serial dilution to achieve nine different concentrations. After overnight incubation, the diluted compound was further diluted with the corresponding cell culture medium. The resulting mixture was transferred to the respective wells of the cell plate, starting with a final concentration of 2 μM, followed by a 5-fold serial dilution to achieve nine concentrations. The positive control wells contained 2 μM fulvestrant, and 1 nM estradiol was added to the entire plate. The plate was mixed, centrifuged, and incubated at 37° C. in a cell incubator with 5% CO2 for the specified number of days according to the above table.
After incubation for the specified time, the cell culture plate was removed, and the CTG reagent was added. […] The readings were taken using the Envision multi-label analyzer. […]

[2] = tested on: MDA-MB-134VI cells; assay: MDA-MB-134VI cell proliferation inhibition assay (CTG); assay type: cell-based; settings: Homo sapiens, 240 h, 10 days
Procedure: (5) HCC1428 and MDA-MB-134VI Cell Proliferation Inhibition Assay
The initial concentration of the compound of formula (I) was set at 200 nM, followed by 4-fold serial dilutions to achieve ten concentration gradients.
• 1) MDA-MB-134VI cells were cultured in DMEM complete growth medium containing 20% FBS and 1% PenStrep. • 2) When the cells in a T75 culture flask reached 80-90% cell fusion, they were digested with trypsin and collected. The cell passages used were the eighth generation for the first independent experiment and the sixth generation for the second independent experiment. • 3) The cells were centrifuged at 1000 rpm, resuspended in complete medium, and counted. The cell densities were 3.60×10^6 cells/mL for the first experiment and 1.93×10^6 cells/mL for the second experiment, with viability both exceeding 95%. • 4) Cell suspensions were prepared in complete medium at a density of 4.00×10^4 cells/mL for both experiments. […] 100 μL of CellTiter-Glo® reagent was added to each well. The plates were incubated at room temperature in the dark for 30 minutes. • 8) Luminescence values were read using a BMG plate reader.
The IC50 (half-maximal inhibitory concentration) of the compound was obtained using the following nonlinear fitting formula: […]

[3] = molecular target: CYP3A (Homo sapiens, UniProt P08684); assay: Inhibition of cytochrome P450 isozymes in human liver microsomes, CYP3A; assay type: in vitro ADME
CYP3A, sequence (P08684 2-503): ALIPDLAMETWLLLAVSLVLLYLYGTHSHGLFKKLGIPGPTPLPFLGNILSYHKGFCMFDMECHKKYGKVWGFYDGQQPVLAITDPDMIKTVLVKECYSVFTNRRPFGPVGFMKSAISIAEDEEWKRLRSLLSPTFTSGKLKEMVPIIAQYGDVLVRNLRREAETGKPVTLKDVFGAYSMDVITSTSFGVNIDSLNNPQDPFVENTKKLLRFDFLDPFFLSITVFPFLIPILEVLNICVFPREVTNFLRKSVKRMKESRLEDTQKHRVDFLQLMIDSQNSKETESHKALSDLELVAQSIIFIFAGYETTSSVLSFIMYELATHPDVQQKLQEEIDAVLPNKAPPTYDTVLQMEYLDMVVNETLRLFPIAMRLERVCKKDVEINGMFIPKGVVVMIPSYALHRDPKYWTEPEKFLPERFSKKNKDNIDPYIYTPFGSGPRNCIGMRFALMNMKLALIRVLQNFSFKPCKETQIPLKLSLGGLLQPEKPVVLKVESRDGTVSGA
Procedure: (1) Study on the Inhibition of Cytochrome P450 Isozymes
The probe substrate, test compound, human liver microsomes, and cofactors were incubated together. The concentration of the metabolic product of the probe substrate was detected using LC-MS/MS to calculate the IC50 values. In the vehicle control samples, the test compound was replaced with an equal volume of vehicle, and the enzyme activity of the vehicle control samples was set as 100%. […]
Upon reaching the respective reaction times for the incubation systems of the various isoenzymes, 200 μL of termination solution containing the appropriate internal standard was added to the reaction plate to terminate the reaction. […] The metabolites of the probe substrates were then analyzed using LC-MS/MS. […]
The activity of various CYP isoenzymes was reflected by the production rate of metabolites from each probe substrate. […] The residual activity percentage of each isoenzyme was determined by comparing the metabolite production rate of the probe substrate in the presence of different concentrations of the test compound or positive inhibitor to that of the vehicle control samples, then multiplying by 100%. […]

FCCCN1CC[C@H](Nc2cnc(C3=C(CC(F)(F)F)CCCc4c3ccc3[nH]nc(F)c43)cn2)C1 [Compound of formula (I)]
IC50 ([1]; First experiment): 1.98 nM | IC50 ([1]; Mean ± SD): 2.35 ± 0.37 nM | IC50 ([1]; Second experiment): 2.71 nM | IC50 ([2]; First experiment): 0.12 nM | IC50 ([2]; Mean ± SD): 0.31 ± 0.26 nM | IC50 ([2]; Second experiment): 0.49 nM | IC50 at 3 min ([3]; probe midazolam, midazolam as the substrate): 8380 nM | IC50 at 10 min ([3]; probe testosterone, testosterone as the substrate): 10900 nM
